Measurements from the Deep4Chem optical property database.

Experiment: solvent given as SMILES

## CCC1=C(C)C2=Cc3cc(I)c(I)n3[B-](F)(F)[N+]2=C1C
In C1CCCCC1
  emission maximum: 550.5 nm
In CC(C)=O
  emission maximum: 552.5 nm
In CCO
  emission maximum: 555 nm
In CCOC(C)=O
  emission maximum: 551.5 nm
In CO
  emission maximum: 552 nm
In OCC(F)(F)F
  emission maximum: 548 nm

## CC[n+]1c(-c2ccccc2)c2cc(NC(N)=[NH2+])ccc2c2ccc(NC(N)=[NH2+])cc21
In O
  emission maximum: 500 nm

## O=C(O)CCCCCn1c2ccccc2c(=O)c2cc(F)ccc21
In O
  emission maximum: 432 nm

## CC1(C)CC(=O)c2cc(F)cc(F)c2N1
In CC#N
  emission maximum: 455 nm
In CCO
  emission maximum: 492 nm

## CCn1c2ccccc2c2cc(-c3cc(-c4ccc5c(c4)c4ccccc4n5CC)nc(SC)n3)ccc21
In C1CCOC1
  emission maximum: 394 nm
In CCOC(C)=O
  emission maximum: 392 nm
In CN(C)C=O
  emission maximum: 421 nm
In Cc1ccccc1
  emission maximum: 387 nm
In ClCCl
  emission maximum: 411 nm

## Cc1ccc2c(c1)c(C#N)c(C#N)c1cc(C)ccc12
In ClC(Cl)Cl
  emission maximum: 396 nm

## COC(=O)c1ccc(NC(=O)c2ccc(N(C)C)cc2)cc1
In C1CCCCC1
  emission maximum: 434 nm
In C1CCOC1
  emission maximum: 470 nm
In CC#N
  emission maximum: 516 nm
In CCOCC
  emission maximum: 456 nm

## COc1cc(/C=C/c2nc(N3CCOCC3)c3c([n+]2[O-])CCCC3)cc(OC)c1OC
In ClCCl
  emission maximum: 521 nm

## CCOC(=O)c1c2c3c(ccc(F)c3c3cc4c(cc13)[Si](C)(C)O[Si]4(C)C)N(C)C2=O
In CC#N
  emission maximum: 411 nm

## c1cc(-c2c3ccccc3c(-c3ccc4ccccc4c3)c3ccccc23)cc(-n2c3ccccc3c3ccccc32)c1
In ClCCl
  emission maximum: 419 nm

## CCOCCOCCOC(=O)/C=C/C1=CC2=C(c3c(C)cc(C)cc3C)c3cc(/C=C/C(=O)OCCOCCOCC)cn3[B-](F)(F)[N+]2=C1
In ClCCl
  emission maximum: 606 nm

## N#C/C(=C\c1ccc(Cl)cc1)c1nc(-c2ccccc2)cs1
In CC#N
  emission maximum: 480 nm

## C#Cc1ccc2cc3c(C)cc(=O)oc3cc2c1
In CCO
  emission maximum: 437 nm

## CCCC1(CCC)c2cc(C=C(C#Cc3ccccc3)C#Cc3ccccc3)ccc2-c2ccc(C=C(C#Cc3ccccc3)C#Cc3ccccc3)cc21
In ClC(Cl)Cl
  emission maximum: 473 nm

## CCN(CC)c1ccc2cc(C#N)/c(=N\C(=O)c3ccc(F)cc3)oc2c1
In CCO
  emission maximum: 533 nm
In ClCCl
  emission maximum: 507 nm

## Cc1nnc(-c2cc(-c3nnc(C)o3)c(-n3c4ccccc4c4ccccc43)cc2-n2c3ccccc3c3ccccc32)o1
In Cc1ccccc1
  emission maximum: 444 nm
In O=P(c1ccccc1)(c1ccccc1)c1ccccc1Oc1ccccc1P(=O)(c1ccccc1)c1ccccc1
  emission maximum: 448 nm

## CN(C)c1ccc(/C=C2\CC/C(=C\c3ccc(C#N)cc3)C2=O)cc1
In C1CCOC1
  emission maximum: 651 nm
In CC#N
  emission maximum: 721 nm
In CC(C)=O
  emission maximum: 718 nm
In CC(C)O
  emission maximum: 647 nm
In CCCCO
  emission maximum: 648 nm
In CCCCOC(C)=O
  emission maximum: 631 nm
In CCCO
  emission maximum: 644 nm
In CCO
  emission maximum: 659 nm
In CCOC(=O)c1ccccc1
  emission maximum: 641 nm
In CCOC(C)=O
  emission maximum: 643 nm
In CCOCC
  emission maximum: 580 nm
In CN(C)C=O
  emission maximum: 740 nm
In CO
  emission maximum: 693 nm
In CS(C)=O
  emission maximum: 731 nm
In Cc1ccccc1
  emission maximum: 558 nm
In ClC(Cl)(Cl)Cl
  emission maximum: 513 nm
In ClC(Cl)Cl
  emission maximum: 603 nm
In ClCCl
  emission maximum: 643 nm
In Clc1ccccc1Cl
  emission maximum: 625 nm
In O=C1CCCC1
  emission maximum: 678 nm
In S=C=S
  emission maximum: 535 nm
In c1ccccc1
  emission maximum: 569 nm
In c1ccncc1
  emission maximum: 673 nm
